{"source": "patent US20090016989A1", "about": "“ANTIBODIES TO HUMAN SOMATOSTATIN RECEPTOR AND METHODS OF USE” (priority 2007, published 2009)", "type_in_all_cases": "cell-based, human", "key": {"[1]": {"system": "BON cells", "test": "Guava Nexin apoptosis assay (Annexin V / 7-AAD)", "details": "10 μg/ml rabbit IgG or antibodies, 100 nM octreotide, % of Total"}, "[2]": {"system": "shSSTR subtype 2-BON cells", "test": "Growth suppression in tetracycline-controlled shRNA knock-down cells", "details": "sh-hSSTR subtype 2-BON; FIG. 5", "procedure": "To validate that cell growth inhibition is caused by the anti-hSSTR antibody in a subtype specific manner, BON cells were stably transfected with plasmids carrying short hairpin RNA shSSTR subtype 2 or shSSTR subtype 5 in which the expression of the shRNAs were under the control of tetracycline. Sh-hSSTR subtype 2 and sh-hSSTR subtype 5 destabilize the target receptor's messenger RNA and, consequently, knock down the expression of the target gene.\n(§1) The resulting maximal suppression in hours (20 hours) is designated as 100% of growth suppression. The difference measured in doubling time detected between experimental samples and untreated samples divided by the maximal suppression yields the percent growth suppression.\nshSSTR BON cells were used to test the specificity of anti-hSSTR subtype 2 and anti-hSSTR subtype 5 antibodies in suppressing BON cell growth. […] The left panels of FIG. 6a and FIG. 6B are the experimental group, while the right panels are the negative control. The Y-axis of each of FIG. 6A and FIG. 6B indicates the growth suppression outcome in %, while the X-axis of each of FIG. 6A and FIG. 6B indicates the increasing concentrations of the antibodies added in each sample. […]"}, "[3]": {"system": "BON cells", "test": "Serotonin EIA, serotonin release", "procedure": "A serotonin ([…]) assay was performed using Serotonin EIA (Biosource, Cat# KAPL10-0900) to measure serotonin release by BON cells over a 48-hour period with or without treatment. […] After 24 hours, the BON cells were subjected to six different daily treatments (at maximum dosages) and grown in FBS-free cell growth media for 2 days in a sterile tissue culture chamber at 37° C. with 6% CO2. These six treatments were: […] The anti-hSSTR Abs (4)-(6) were antibodies produced in the experiment described in Example 1. At the end of each treatment, 1× Halt Protease Inhibitor cocktail (Pierce, Cat# 78415) was immediately added to each sample and the media was collected from each sample and used for Serotonin detection. Next, cells were dissociated from the plate using 2 ml of 1× trypsin-EDTA (Invitrogen Cat#2520) in cell growth media and incubated at 37° C. with 6% CO2 for 5 minutes. Subsequently, an additional 8 ml of cell growth media was added to neutralize trypsin-EDTA, and subjected to 1000 rpm at 4° C. in 15 ml Falcon tubes using Beckman table top centrifuge. Guava Technologies PCA-96 instrument (tabletop flow cytometer) and Viacount flex reagent (Guava Technologies, Cat# 4500-0100) were then used to determine the number of cells for the abovementioned treatments. The results were as follows: […] […]"}, "[4]": {"system": "BON cells", "test": "MTS cell proliferation assay, growth doubling time", "procedure": "The effects of anti-hSSTR subtype 2 and anti-hSSTR subtype 5 antibodies on cell proliferation were tested using CellTiter 96® Aqueous One Solution Cell Proliferation Assay (MTS) (Promega, Cat#G3581). The assay was performed to measure the growth doubling time for BON cells in vitro (FIG. 3, growth doubling time in hours is presented on the Y-axis). The growth doubling time for BON cells following treatment with rabbit IgG was around 28 to 30 hours (similar to vehicle alone). […] Cell growth was detected at 490 nm (colorimetric detection) by using instrument Victor 3V (Perkin Elmer) once every 24 hours in the duration of 96 hours.\nas §1\nBON cells were seeded, grown and maintained in F12 HAM (Invitrogen, Cat#31765035)/D-MEM (Invitrogen, Cat#10567-014) (50/50) with 10% certified fetal bovine serum (FBS) (Invitrogen, Cat#16000-044) in 96-well cell culture dishes (Costar, Cat# 3590) at a density of 2500 cells/well. […] Cell growth was detected at 490 nm (colorimetric detection) by using instrument Victor 3V (Perkin Elmer) once every 24 hours in the duration of 96 hours."}}}
{"smiles": "C[C@@H](O)[C@@H]1NC(=O)[C@H](CCCCN)NC(=O)[C@@H](Cc2c[nH]c3ccccc23)NC(=O)[C@H](Cc2ccccc2)NC(=O)[C@@H](NC(=O)[C@H](N)Cc2ccccc2)CSSC[C@@H](C(=O)N[C@H](CO)[C@@H](C)O)NC1=O", "note": "[octreotide]", "values": [{"measurement": "Live, healthy cells (Lower Left Quadrant)", "setting": "[1]; 24 hours after treatment", "result": 95.7, "unit": "%"}, {"measurement": "Late apoptotic cells (Upper Right Quadrant)", "setting": "[1]; 48 hours after treatment", "result": 10.0, "unit": "%"}, {"measurement": "Live, healthy cells (Lower Left Quadrant)", "setting": "[1]; 48 hours after treatment", "result": 85.4, "unit": "%"}, {"measurement": "Live, healthy cells (Lower Left Quadrant)", "setting": "[1]; 72 hours after treatment", "result": 72.5, "unit": "%"}, {"measurement": "growth doubling time under octreotide compared to BON cells", "setting": "[2]", "result": "did not change"}, {"measurement": "serotonin level in the media", "setting": "[3]; 48-hour period, 5 μg/ml antibody or rabbit IgG, 100 nM octreotide, four independent experiments", "result": 2126, "unit": "attogram/cell"}, {"measurement": "decrease of serotonin release against control", "setting": "[3]; 48 hours, antibodies against rabbit IgG, octreotide against vehicle (PBS)", "result": 2.7, "unit": "fold"}, {"measurement": "approximate EC50 (growth)", "setting": "[4]; octreotide 0.5, 1, 10 to 50 nM, FIG. 5", "result": "single nM"}, {"measurement": "doubling time", "setting": "[4]; saturating octreotide (50 nM)", "result": "~50", "unit": "h"}]}
